The results in this text go back to patent US5482957A, “Azole derivatives, process for their preparation and their use” (Hoechst Aktiengesellschaft, priority 1991, dated 1996).

As a reminder, the IC50 is the concentration that gives 50% inhibition. Higher therefore signals lower potency.

This experiment addresses angiotensin II receptor. The experiment is described as follows: Displacement of 125I- or 3H-angiotensin II from receptor preparations from various organs (liver, lung, adrenal gland, brain etc.). It counts as binding. Conditions: Table 1; radioligand displacement, 25° C., 90 min, pH 7.4. On the procedure: Alternatively, the affinity of the compounds of the formula I for the angiotensin II receptor can be determined by measurement of the ^125 I-angiotensin II or ^3 H-angiotensin II displacement of receptor preparations from various organs (liver, lung, adrenal gland, brain etc.).
To this end, the prepared membranes are suspended in an incubation buffer ([…], pH 7.4, containing 135 mM NaCl, 10 mM KCl, 10 mM MgCl2, 5 mM glucose, 0.2% bovine serum albumin and the protease inhibitors PMSF, 0.3 mM, and bacitracin, 0.1 mM) and incubated at 25° C. for 90 min together with the radioactively labeled angiotensin II and various concentrations of the compounds to be tested. Bound and free radioligand are then separated by filtration through micro glass fiber filters (GF51, Schleicher and Schull) in a cell collector (SKATRON).
The degree of displacement of the radioligand from the receptor by the test compounds is determined by measurement of the receptor-bound radioactivity on the filters by means of a beta- or gamma-spectrometer. The amount of the displacement of the radioligand from the receptor by the test compounds is indicated by the IC50, i.e. the concentration of the inhibitor which displaces 50% of the bound radioligand from the receptor. The calculation of the IC50 values is carried out by means of PC software (LIGAND, G. A. McPherson 1985, Elsevier BIOSOFT, 68 Hills Road, Cambridge, CB2 1LA, UK.).
For orientation: Displacement assays read how much labelled ligand stays bound in the presence of the test substance.
The molecule `CCCCc1nc(SC)c(C(=O)O)n1Cc1ccc(-c2ccccc2S(=O)(=O)NC(=O)NCc2ccccn2)cc1` [Example 113] returned an IC50 of 0.3 nM. The figure for `CCCCc1nc(SC)c(C(=O)OCC)n1Cc1ccc(-c2ccccc2S(=O)(=O)NS(=O)(=O)c2ccc([N+](=O)[O-])cc2)cc1` [Example 191] is 21.4 nM; for `C=CCNC(=O)NS(=O)(=O)c1ccccc1-c1ccc(Cn2c(CCCC)nc(Cl)c2C=O)cc1` [Example 55, 1-[(2'-allylaminocarbonylaminosulfonylbiphenyl-4-yl)methyl]-2-n-butyl-4-chloroimidazole-5-carboxaldehyde] it is 8.8 nM. In the case of `CCCCc1nc(SC)c(C(=O)OCC)n1Cc1ccc(-c2ccccc2S(=O)(=O)NC(=O)NCC2CCC3CC2C3(C)C)cc1` (stereo not shown) [Example 134], the IC50 came out at 180 nM. The figure for `C=CCOC(=O)NS(=O)(=O)c1ccccc1-c1ccc(Cn2c(CCCC)nc(SC)c2C(=O)O)cc1` [Example 181, 1-[(2'-allyloxycarbonylaminosulfonylbiphenyl-4-yl)methyl]-2-n-butyl-4-methylthioimidazole-5-carboxylic acid] is 1 nM; for `CCCCc1nc(SC)c(C(=O)O)n1Cc1ccc(-c2ccccc2S(=O)(=O)NC(=O)NCC2CC2)cc1` [Example 109] it is 0.6 nM. The figure for `CCCCc1nc(SC)c(C(=O)OCC)n1Cc1ccc(-c2ccccc2S(=O)(=O)NC(=O)N2CCSCC2)cc1` [Example 144] is 5.3 nM. The figure for `CCCCc1nc(SC)c(C(=O)O)n1Cc1ccc(-c2ccccc2S(=O)(=O)NC(=O)OCC2CC2)cc1` [Example 155] is 6 nM; for `CCCCc1nc(SC)c(C(=O)O)n1Cc1ccc(-c2ccccc2S(=O)(=O)NC(=O)N[C@H](CO)Cc2ccccc2)cc1` [Example 129] it is 1.5 nM; for `CCCCc1nc(Cl)c(C=O)n1Cc1ccc(-c2ccccc2S(=O)(=O)NC(=O)Nc2ccc([N+](=O)[O-])cc2)cc1` [Example 22] it is 2000 nM. In the case of `CCCCc1nc(SC)c(C(=O)OCC)n1Cc1ccc(-c2ccccc2S(=O)(=O)NC(=O)OCc2cccs2)cc1` [Example 159], the half-maximal inhibitory concentration (IC50) was found to be 8.7 nM.

Molecule `CCCCc1nc(SC)c(C(=O)OCC)n1Cc1ccc(-c2ccccc2S(=O)(=O)NC(=O)N2CCCC2)cc1` [Example 141] came in with an IC50 of 4.4 nM. `CCCCc1nc(SC)c(C(=O)O)n1Cc1ccc(-c2ccccc2S(=O)(=O)NC(=O)NCc2ccncc2)cc1` [Example 115] had an IC50 of 0.9 nM. The figure for `CCCCc1nc(SC)c(C(=O)O)n1Cc1ccc(-c2ccccc2S(=O)(=O)NC(=O)OCC)cc1` [Example 171] is 0.7 nM. The figure for `CCCCc1nc(SC)c(C(=O)O)n1Cc1ccc(-c2ccccc2S(=O)(=O)NC(=O)OCCc2ccccc2)cc1` [Example 152] is 1.5 nM; for `CCCCc1nc(SC)c(C(=O)O)n1Cc1ccc(-c2ccccc2S(=O)(=O)NC(=O)NCCC2CCCN2C)cc1` (stereo not shown) [Example 108] it is 0.95 nM. For `CCCCc1nc(SC)c(C(=O)O)n1Cc1ccc(-c2ccccc2S(=O)(=O)NC(=O)N[C@@H](CO)c2ccccc2)cc1` [Example 125] the value was 2.8 nM. In turn, `CCCCc1nc(SC)c(C(=O)OCC)n1Cc1ccc(-c2ccccc2S(=O)(=O)NC(=O)NCCc2ccccc2)cc1` [Example 66] showed an IC50 of 6.9 nM. The figure for `CCCCc1nc(SC)c(C(=O)OCC)n1Cc1ccc(-c2ccccc2S(=O)(=O)NC(=O)n2cccc2)cc1` [Example 138] is 1.7 nM; for `CCCCc1nc(SC)c(C(=O)O)n1Cc1ccc(-c2ccccc2S(=O)(=O)NC(=O)NCC2CCC3CC2C3(C)C)cc1` (stereo not shown) [Example 135] it is 5.6 nM; for `CCCCc1nc(SC)c(C(=O)OCC)n1Cc1ccc(-c2ccccc2S(=O)(=O)NC(=O)OCCc2ccccc2)cc1` [Example 151] it is 0.4 nM. The figure for `CCCCc1nc(SC)c(C(=O)O)n1Cc1ccc(-c2ccccc2S(=O)(=O)NC(=O)Nc2ccc(F)cc2)cc1` [Example 101] is 2.4 nM; for `CCCCc1nc(SC)c(C(=O)O)n1Cc1ccc(-c2ccccc2S(=O)(=O)NC(=O)NCCCc2ccccc2)cc1` [Example 81] it is 0.79 nM; for `C=CCN(CC=C)C(=O)NS(=O)(=O)c1ccccc1-c1ccc(Cn2c(CCCC)nc(SC)c2C(=O)O)cc1` [Example 61] it is 1.1 nM. `CCCCc1nc(SC)c(C(=O)O)n1Cc1ccc(-c2ccccc2S(=O)(=O)NC(=O)OCC=C(C)C)cc1` [Example 165] came in with a concentration for half-maximal inhibition (IC50) of 2.3 nM. Molecule `CCCCc1nc(SC)c(C(=O)OCC)n1Cc1ccc(-c2ccccc2S(=O)(=O)NC(=O)OC)cc1` [Example 174] yielded an IC50 of 5.1 nM.

With `CCCCc1nc(SC)c(C(=O)O)n1Cc1ccc(-c2ccccc2S(=O)(=O)NC(=O)NCc2ccc(OC)c(OC)c2)cc1` [Example 89], the half-inhibitory concentration (IC50) was determined as 1.1 nM. For `CCCCc1ncc(C(=O)OCC)n1Cc1ccc(-c2ccccc2S(=O)(=O)NC(=O)NCc2ccccc2)cc1` [Example 187, Ethyl 1-{[(2'-benzylaminocarbonylaminosulfonyl)biphenyl-4-yl]methyl}-2-n-butylimidazole-5-carboxylate] the value was 1.2 nM. `C#CCNC(=O)NS(=O)(=O)c1ccccc1-c1ccc(Cn2c(CCCC)nc(SC)c2C(=O)O)cc1` [Example 64]: the IC50 was 0.5 nM. The figure for `CCCCc1nc(SC)c(C(=O)O)n1Cc1ccc(-c2ccccc2S(=O)(=O)NC(=O)NCc2ccccc2)cc1` [Example 80] is 0.69 nM; for `CCCCc1nc(SC)c(C(=O)O)n1Cc1ccc(-c2ccccc2S(=O)(=O)NC(=O)OCc2ccccc2)cc1` [Example 183, 1-[(2'-Benzyloxycarbonylaminosulfonylbiphenyl-4-yl)methyl]-2-n-butyl-4-methylthioimidazole-5-carboxylic acid] it is 1.7 nM. For `CCCCc1nc(SC)c(C(=O)O)n1Cc1ccc(-c2ccccc2S(=O)(=O)NC(=O)NCC2CCCCC2)cc1` [Example 60] the value was 2.2 nM; for `CCCCc1nc(SC)c(C(=O)OCC)n1Cc1ccc(-c2ccccc2S(=O)(=O)NC(=O)NCc2cccc(OC)c2)cc1` [Example 85], 3.9 nM. For `CCCCc1nc(SC)c(C(=O)OCC)n1Cc1ccc(-c2ccccc2S(=O)(=O)NC(=O)NCC2CC2)cc1` [Example 110] the value was 0.5 nM; for `CCCCc1nc(SC)c(C(=O)O)n1Cc1ccc(-c2ccccc2S(=O)(=O)NC(=O)OCc2cccs2)cc1` [Example 160], 0.73 nM. As to `CCCCc1nc(SC)c(C(=O)OCC)n1Cc1ccc(-c2ccccc2S(=O)(=O)NC(=O)NC(C)c2ccccc2)cc1` (stereo not shown) [Example 95], the IC50 is 1.8 nM. The figure for `CCCCc1nc(Cl)c(C=O)n1Cc1ccc(-c2ccccc2S(=O)(=O)NC(=O)NCCc2ccccn2)cc1` [Example 29] is 1.1 nM; for `CCCCc1nc(SC)c(C(=O)OCC)n1Cc1ccc(-c2ccccc2S(=O)(=O)NC(=O)NCC2CCNCC2)cc1` [Example 117] it is 1.2 nM. With `CCCCc1nc(SC)c(C(=O)OCC)n1Cc1ccc(-c2ccccc2S(=O)(=O)NC(=O)OCC)cc1` [Example 170], the half-inhibitory concentration (IC50) is 2.7 nM. The figure for `CCCCc1nc(SC)c(C(=O)OCC)n1Cc1ccc(-c2ccccc2S(=O)(=O)NC(=O)N[C@H](CO)Cc2ccccc2)cc1` [Example 128] is 5.6 nM; for `CCCCc1nc(Cl)c(C=O)n1Cc1ccc(-c2ccccc2S(=O)(=O)NC(=O)Nc2ccc(F)cc2)cc1` [Example 25] it is 1400 nM. For `CCCCc1nc(Cl)c(C=O)n1Cc1ccc(-c2ccccc2S(=O)(=O)NC(=O)Nc2ccccc2)cc1` [Example 1, 1-[(2'-phenylaminocarbonylaminosulfonylbiphenyl-4-yl)methyl]-2-n-butyl-4-chloroimidazole-5-carboxaldehyde] the value was 5000 nM; for `CCCCc1nc(SC)c(C(=O)OCC)n1Cc1ccc(-c2ccccc2S(=O)(=O)NC(=O)NC)cc1` [Example 195], 3 nM; for `CCCCc1nc(Cl)c(C=O)n1Cc1ccc(-c2ccccc2S(=O)(=O)NC(=O)Nc2nc(C)cs2)cc1` [Example 32], 3.5 nM. For `CCCCc1nc(SC)c(C(=O)OCC)n1Cc1ccc(-c2ccccc2S(=O)(=O)NC(=O)N[C@H](C(=O)OC)C(C)CC)cc1` (stereo partly shown) [Example 68] the value was 12 nM; for `CCCCc1nc(SC)c(C(=O)O)n1Cc1ccc(-c2ccccc2S(=O)(=O)NC(=O)NCCCN2CCCC2=O)cc1` [Example 116], 2.4 nM; for `CCCCc1nc(SC)c(C(=O)O)n1Cc1ccc(-c2ccccc2S(=O)(=O)NC(=O)OCCOC(C)C)cc1` [Example 157], 1.4 nM. As for `CCCCc1nc(SC)c(C(=O)O)n1Cc1ccc(-c2ccccc2S(=O)(=O)NC(=O)NCCCN2CCCCC2C)cc1` (stereo not shown) [Example 111], the concentration for half-maximal inhibition (IC50) was determined as 2.9 nM. The figure for `CCCCc1nc(SC)c(C(=O)OCC)n1Cc1ccc(-c2ccccc2S(=O)(=O)NC(=O)NCC(=O)OC)cc1` [Example 71] is 2.2 nM; for `CCCCc1nc(Cl)c(C=O)n1Cc1ccc(-c2ccccc2S(=O)(=O)NC(=O)Nc2ccc(C)cc2)cc1` [Example 35] it is 50 nM.

In the case of `C=C(C)COC(=O)NS(=O)(=O)c1ccccc1-c1ccc(Cn2c(CCCC)nc(SC)c2C(=O)O)cc1` [Example 166], the IC50 was determined as 1.2 nM.

With `CCCCc1nc(SC)c(C(=O)OCC)n1Cc1ccc(-c2ccccc2S(=O)(=O)NC(=O)NCc2ccccc2OC)cc1` [Example 84], the IC50 was 4.3 nM.
